Data from PMC8853709, “Synthesis, computational studies, tyrosinase inhibitory kinetics and antimelanogenic activity of hydroxy substituted 2-[(4-acetylphenyl)amino]-2-oxoethyl derivatives” (Journal of Enzyme Inhibition and Medicinal Chemistry, 2019).
“Also recorded” adds a separate entry of the source. Like-named read-outs stand apart in the source and are kept apart here.

Key:
[1] = biological target: T1, mushroom tyrosinase (EC 1.14.18.1) (Agaricus bisporus, UniProt C7FF04); experiment: Mushroom tyrosinase inhibition assay (L-DOPA, dopachrome absorbance); format: biochemical, Agaricusbisporus
T1 construct: purchased Sigma Chemical Co., ST; Louis, MO
T1 sequence (C7FF04 2-392): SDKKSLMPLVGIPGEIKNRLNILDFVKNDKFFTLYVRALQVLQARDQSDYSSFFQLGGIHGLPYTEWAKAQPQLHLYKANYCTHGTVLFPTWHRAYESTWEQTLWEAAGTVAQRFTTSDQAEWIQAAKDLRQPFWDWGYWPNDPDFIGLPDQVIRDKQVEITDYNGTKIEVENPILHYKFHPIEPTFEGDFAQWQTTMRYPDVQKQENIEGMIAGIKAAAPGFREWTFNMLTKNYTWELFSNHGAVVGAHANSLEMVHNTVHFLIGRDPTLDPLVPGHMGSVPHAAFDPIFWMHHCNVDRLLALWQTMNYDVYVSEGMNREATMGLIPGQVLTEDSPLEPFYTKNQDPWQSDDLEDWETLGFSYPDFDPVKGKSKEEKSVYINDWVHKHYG
Method: The mushroom tyrosinase (EC 1.14.18.1) (Sigma Chemical Co., ST. Louis, MO) was used for in vitro bioassays as described previously with some modifications[39]^,[40]. Briefly, 140 µL of phosphate buffer (20 mM, pH 6.8), 20 µL of mushroom tyrosinase (30 U/mL) and 20 µL of the inhibitor solution were placed in the wells of a 96-well micro plate. After pre-incubation for 10 min at room temperature, 20 µL of L-DOPA (3,4-dihydroxyphenylalanine) (0.85 mM) was added and the plate was further incubated at 25 °C for 20 min. Subsequently the absorbance of dopachrome was measured at 492 nm using a micro plate reader (OPTI Max, Tunable). Kojic acid was used as a reference inhibitor and for negative tyrosinase inhibitor phosphate buffer was used instead of the inhibitor solution. The extent of inhibition by the test compounds was expressed as the percentage of concentration necessary to achieve 50% inhibition (IC50). Each concentration was analysed in three independent experiments run in triplicate. The IC50 values were determined by the data analysis and graphing software Origin 8.6, 64-bit.

mushroom tyrosinase = biological target: T2, mushroom tyrosinase (Agaricus bisporus, UniProt C7FF04); experiment: Kinetic analysis of the inhibition of mushroom tyrosinase (Lineweaver–Burk, Dixon, enzyme concentration plots); format: biochemical, Agaricusbisporus; conditions: for type of inhibition (Lineweaver–Burk plot) / Ki: diphenolase activity, L-DOPA; for Ki: read-out: dissociation constant Ki (Dixon plot); for mode of binding (reversibility of enzyme–inhibitor complex): remaining enzyme activity versus enzyme concentration 1.25, 2.5 and 5 µg/mL
T2 construct: purchased Sigma Chemical Co., ST; Louis, MO
T2 sequence (C7FF04 2-392): as above
Method: To understand the mechanism of mushroom tyrosinase inhibition by compounds 5c and 5d, kinetic studies were conducted. […] Enzyme inhibition kinetics was analysed by Lineweaver–Burk plot and Dixon plots to determine the type of inhibition and inhibition constant (KI).
The inhibitory mechanism of mushroom tyrosinase by compounds 5c (in concentrations: 0.0, 0.0011, 0.0022, 0.0045, 0.0090 and 0.018 µM) and 5d (in concentrations: 0.0, 1.75, 3.5, 7.0, 14, 28 and 56 µM) were investigated.
A series of experiments were performed to determine the inhibition kinetics by following method[41]^,[42]. Inhibitor 5c with concentrations […], 0.0022, 0.0045, 0.009, 0.018 µM and 5d with concentrations 0.0, 1.75, 3.5, 7, 14 and 28 µM, respectively, were used. Substrate L-DOPA concentration was among 0.0625–2 mM in all kinetic study. Pre-incubation and measurement time was the same as discussed in mushroom tyrosinase inhibition assay protocol. The formation of DOPAchrome was continuously monitored at 475 nm for 5 min at a 30 s interval in the microplate reader after addition of enzyme. The inhibition type on the enzyme was assayed by Lineweaver–Burk plots of inverse of velocities (1/V) versus inverse of substrate concentration 1/[S] mM^−1, and the inhibition constant Ki was determined by the Dixon plot of 1/V versus inhibitor concentrations.

[2] = MTT cell viability assay and cell morphology; format: cell-based, murine; conditions: mouse, B16F10 murine melanoma cells, B16F10, 24 µg/ml, read-out: toxic effect in MTT cell viability assay, compared to control normalized to 100%
Method: (§1) To test the safety level of 5c compound, MTT assay (3-(4,5-dimethylthiazol-2-yl)-2,5-diphenyltetrazolium Bromide) was performed. The murine melanoma (B16F10) cells (1.5 × 10^5 cells/ml) were seeded in 24 well plates (SPL Korea) with DMEM medium at 37 °C and 5% CO2 incubator. Test compound 5c was dissolved in DMSO and diluted with culture medium to get the final concentrations of 0 (control), 6, 12 and 24 µg/ml, and then added to the cells for 24 h further incubation. The MTT assay was then conducted, and results were calculated in percentage of control. In addition, cellular images were taken by inverted fluorescent microscope (Nikon, ECLIPSE, Tokyo, Japan) to access the 5c effect on cell morphology.

[3] = test system: murine melanoma (B16F10) cells; experiment: MTT cell viability assay and cell morphology; format: cell-based; conditions: 24 h
Method: as §1

[4] = test system: murine melanoma (B16F10) cells; experiment: Melanin content measurement; format: cell-based
Method: For melanin measurement, melanoma (1.5 × 10^5) cells were seeded in cell culture plates for 24 h at 37 °C and 5% CO2incubator. Then cells were incubated with various concentrations of 5c in cell culture medium for further 24 h. Later, assay for melanin measurement was performed following already reported method. Briefly, the cells were trypsinised and centrifuged for 5 min at 1000 rpm. The cell pellet was dissolved in 1 N NaOH at 60 °C for 1 h and melanin content was measured spectrophotometrically at 405 nm wavelengths using a microplate reader (BioTek, synergy HT, Winooski, VT).

[5] = L-DOPA substrate, pH 6.8, 25 °C, read-out: Mushroom tyrosinase inhibition IC50

**Q.** With `CC(=O)c1ccc(NC(=O)CCl)cc1` [Compound 1] as the compound, how does the IC50 [1] read?
**A.** The IC50 was 54.5 ± 3.1 µM.

**Q.** For `CC(=O)c1ccc(NC(=O)COC(=O)c2cccc(O)c2)cc1` [Compound 3a, 2-[(4-Acetylphenyl)amino]-2-oxoethyl 3-hydroxybenzoate], which IC50 [1] is on record?
**A.** The IC50 was 325 ± 16.9 µM.

**Q.** With `CC(=O)c1ccc(NC(=O)COC(=O)c2ccc(O)cc2)cc1` [Compound 3b, 2-[(4-Acetylphenyl)amino]-2-oxoethyl 4-hydroxybenzoate] as the compound, how does the IC50 [1] read?
**A.** The IC50 was 319 ± 31.9 µM.

**Q.** For `CC(=O)c1ccc(NC(=O)COC(=O)c2ccc(O)cc2O)cc1` [Compound 3c, 2-[(4-Acetylphenyl)amino]-2-oxoethyl 2,4-dihydroxybenzoate], which IC50 [1] is on record?
**A.** Its IC50 is 145 ± 16.7 µM.

**Q.** For `CC(=O)c1ccc(NC(=O)COC(=O)c2ccc(O)c(O)c2)cc1` [Compound 3d, 2-[(4-Acetylphenyl)amino]-2-oxoethyl 3,4-dihydroxybenzoate], which IC50 [1] is on record?
**A.** The IC50 was 257 ± 23.4 µM.

**Q.** What does the source list for `CC(=O)c1ccc(NC(=O)COC(=O)c2cc(O)cc(O)c2)cc1` [Compound 3e]?
**A.** IC50 [1]: 166 ± 14.2 µM; melting point: 249 to 251 °C

**Q.** For `CC(=O)c1ccc(NC(=O)COC(=O)C=Cc2ccccc2)cc1` [Compound 5a, 2-[(4-Acetylphenyl)amino]-2-oxoethyl cinnamate], which IC50 [1] is on record?
**A.** The IC50 was 63.5 ± 2.5 µM.

**Q.** With `CC(=O)c1ccc(NC(=O)COC(=O)/C=C/c2ccc(O)cc2)cc1` [Compound 5b, 2-[(4-Acetylphenyl)amino]-2-oxoethyl (E)-3-(4-hydroxyphenyl)acrylate] as the compound, how does the IC50 [1] read?
**A.** Its IC50 is 97.3 ± 5.8 µM.

**Q.** And the melting point?
**A.** Its melting point is 226 to 228 °C.

**Q.** What does the source list for `CC(=O)c1ccc(NC(=O)COC(=O)/C=C/c2ccc(O)cc2O)cc1` [Compound 5c, 2-[(4-Acetylphenyl)amino]-2-oxoethyl (E)-3-(2,4-dihydroxyphenyl)acrylate]?
**A.** IC50 [1, 5]: 0.0089 ± 0.0004 µM; type of inhibition (Lineweaver–Burk plot) (mushroom tyrosinase): competitive inhibitor; Ki (mushroom tyrosinase): 0.01 µM; mode of binding (reversibility of enzyme–inhibitor complex) (mushroom tyrosinase): irreversibly bind; also recorded: irreversible mode of binding; viability at 24 h, 24 µg/ml [2]: 33.7%; effect on cell viability (MTT) ([3]; B16F10, 12 µg/ml): safe and no significant effect and nontoxic; effect on cell morphology ([3]; B16F10, 3, 6, 12 µg/ml): no effect on cell morphology; antimelanogenic activity ([4]; B16F10, 12 µg/mL): produced antimelenogenic effects; cellular melanin content as compared to control normalized to 100% ([4]; B16F10, 12 µg/ml, 24 h): 82%; melting point: 236 to 238 °C

**Q.** Which IC50 [1, 5] does the source give for `CC(=O)c1ccc(NC(=O)COC(=O)/C=C/c2ccc(Cl)cc2)cc1` [Compound 5d, 2-[(4-Acetylphenyl)amino]-2-oxoethyl-(E)-3-(4-chlorophenyl)acrylate] here?
**A.** Its IC50 is 8.26 ± 1.7 µM.

**Q.** What about the “type of inhibition (Lineweaver–Burk plot)” value (mushroom tyrosinase) of the same compound?
**A.** Its value is “mixed-type inhibitor”.

**Q.** And the Ki (mushroom tyrosinase)?
**A.** The Ki was 6 µM.

**Q.** What about the “mode of binding (reversibility of enzyme–inhibitor complex)” value (mushroom tyrosinase) of the same compound?
**A.** The value was “irreversibly bind; also recorded: irreversible inhibitor; also recorded: irreversible mode of binding”.
